{"source": "patent US10434079B2", "about": "“Compositions and methods for the treatment of fatty acid metabolism disorders” (The Children's Hospital of Philadelphia, priority 2013, dated 2019)", "key": {"[1]": {"molecular_target": "T1, C238A VLCAD (Mus musculus, UniProt P50544, C238A)", "T1 construct": "3xFLAG (C); host or cells: Hepa 1 to 6 cells", "T1 sequence (P50544 42-656 C238A)": "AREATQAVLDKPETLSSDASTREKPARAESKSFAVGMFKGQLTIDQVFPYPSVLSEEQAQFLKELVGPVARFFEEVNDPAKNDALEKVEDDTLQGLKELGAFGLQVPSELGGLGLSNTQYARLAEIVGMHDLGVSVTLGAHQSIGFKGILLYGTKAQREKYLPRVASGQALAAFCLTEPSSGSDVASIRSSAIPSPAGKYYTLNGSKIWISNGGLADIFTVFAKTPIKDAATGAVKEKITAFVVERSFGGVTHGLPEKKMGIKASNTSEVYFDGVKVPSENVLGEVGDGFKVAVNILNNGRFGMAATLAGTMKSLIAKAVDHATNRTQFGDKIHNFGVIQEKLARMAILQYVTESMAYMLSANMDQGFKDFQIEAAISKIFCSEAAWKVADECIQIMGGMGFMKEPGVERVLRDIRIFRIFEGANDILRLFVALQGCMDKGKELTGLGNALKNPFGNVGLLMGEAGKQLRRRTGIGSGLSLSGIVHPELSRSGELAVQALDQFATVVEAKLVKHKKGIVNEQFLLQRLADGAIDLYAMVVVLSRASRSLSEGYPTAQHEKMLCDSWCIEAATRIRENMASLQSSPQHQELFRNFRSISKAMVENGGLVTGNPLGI", "assay": "Hepa 1 to 6 cells expressing FLAG-tagged C238A VLCAD exposed to GSNO", "type": "cell-based", "conditions": "same GSNO treatment", "protocol": "Liver homogenate (final concentration of 0.03 μg/μl) or cell lysate (final concentration of 0.09 μg/μl) in 100 mM potassium phosphate buffer (pH 7.2) containing 0.2% Triton X-100 and 0.1 mM EDTA was mixed with […] ferricenium ion, and the reaction was initiated by the addition of palmitoyl-CoA (the final volume of the assay was 130 μl). […] At least nine concentrations of palmitoyl-CoA, ranging from 0.015 to 2 mM, were used for the experimental determination of the apparent Vmax and KM of VLCAD for each animal. […] A unit of enzyme activity is defined as the amount of enzyme that causes the reduction of […] of ferricenium per minute at room temperature (ε=4.3 mM^−1 cm^−1 at 300 nm) (Izai et al. (1992) J. Biol. Chem., 267:1027-1033). […] The measurement of specific activity of VLCAD in liver homogenates (FIG. 2H) and cell lysates (FIG. 4) was performed in the presence of 0.25 and 0.125 mM palmitoyl-CoA, respectively.\nThe QuikChange® Lightning Site-Directed Mutagenesis Kit (Agilent Technologies) was used to introduce single amino acid mutations in complementary DNA encoding VLCAD. A cysteine-to-alanine mutant at amino acid position 238 was generated with Ex-Mm01013-M14 (hereinafter referred to as pVLCAD-3×FLAG®), a plasmid encoding mouse VLCAD fused to three FLAG® tags in the C-terminal region of the protein (GeneCopoeia), as a template. […]"}, "[2]": {"molecular_target": "T2, VLCAD (Mus musculus, UniProt P50544)", "T2 sequence (P50544 42-656)": "T1 sequence (P50544 42-656 C238A) with A197C"}}, "note": "Numbering of substitutions follows the chain as printed."}
{"smiles": "N[C@@H](CCC(=O)N[C@@H](CSN=O)C(=O)NCC(=O)O)C(=O)O", "note": "[GSNO, S-nitrosoglutathione]", "values": [{"measurement": "basal activity of C238A VLCAD mutant in response to GSNO", "setting": "[1]", "result": "did not change"}, {"measurement": "VLCAD specific activity of untreated eNOS-/- relative to eNOS-/- liver tissue treated with GSNO", "setting": "[2]; 5 μM GSNO 30 minutes prior to the assay, 0.25 mM palmitoyl-CoA", "result": "significantly lower"}, {"measurement": "KM for VLCAD enzymatic activity, treated vs untreated homogenate", "setting": "[2]; eNOS-/- liver homogenates treated ex vivo with GSNO", "result": "increased five-fold"}, {"measurement": "S-nitrosylation of VLCAD at Cys238 ex vivo", "setting": "[2]; eNOS-/- liver homogenates treated with GSNO", "result": "readily modified"}]}
